Measurements taken from the supplement of paper PMC7017272.
± gives the standard deviation of the averaged measurements.

What was measured:
UT-SCC-40 [1] = assay: relative IC50 (midpoint of the fitted curve; maximal inhibition may be below 50%); higher = less potent; details: treatment time: 3 days
Summary of the method: (§1)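 HPV-negative HNSCC cell lines were seeded at 500 cells/well in 384-well plates on plastic, on Matrigel- or Myogel-coated wells (500 µg/mL), or embedded in Matrigel or Myogel plus rat collagen I. Compounds were given at five 10-fold concentrations for 3 days, and viability was read by CellTiter-Glo 2.0 luminescence. Signals were normalised to vehicle (0.1% DMSO) and cell-killing control wells. Percent-inhibition dose–response curves were fitted in the FIMM pipeline to derive IC50, maximal inhibition and drug sensitivity score.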

UT-SCC-81 [2] = assay: as above; details: treatment time: 3 days
Summary of the method: as §1

UT-SCC-28 [3] = assay: as above; details: culture condition: embedded in Matrigel; treatment time: 3 days
Summary of the method: as §1

UT-SCC-24B [4] = assay: as above; details: treatment time: 3 days
Summary of the method: as §1

UT-SCC-24A = assay: drug sensitivity score (DSS); higher = more sensitive; details: treatment time: 3 days
Description: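 HNSCC cell lines (500 cells/well, 384-well) were cultured on plastic, on top of (2D) or embedded (3D) in Matrigel or human leiomyoma matrix Myogel (500 ug/mL; Myogel 3D mixed with rat collagen I). Cells were treated for 3 days with 5 ten-fold concentrations of each drug, and viability was read by CellTiter-Glo. Suffixes _1/_2/_3 on drug names are replicates.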

UT-SCC-42B = assay: maximal % inhibition of viability relative to DMSO; higher = stronger effect; details: treatment time: 3 days
Description: (§2)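 HNSCC cell lines (500 cells/well, 384-well) were cultured on plastic, on top of (2D) or embedded (3D) in Matrigel or human leiomyoma matrix Myogel (500 ug/mL; Myogel 3D mixed with rat collagen I). Cells were treated for 3 days with 5 ten-fold concentrations of each drug, and viability was read by CellTiter-Glo. Viability was normalised to DMSO and benzethonium chloride controls and fitted with the FIMM DSRT pipeline to give IC50 (nM), maximal % inhibition and DSS. Suffixes _1/_2/_3 are replicates. Only inhibition-mode (IC50) fits are kept.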

UT-SCC-40 [5] = assay: as above; details: treatment time: 3 days
Description: as §2

UT-SCC-42A = assay: as above; details: treatment time: 3 days
Description: as §2

UT-SCC-81 [6] = assay: as above; details: treatment time: 3 days
Description: as §2

UT-SCC-28 [7] = assay: as above; details: treatment time: 3 days
Description: as §2

UT-SCC-44 = assay: as above; details: treatment time: 3 days
Description: as §2

UT-SCC-24B [8] = assay: as above; details: treatment time: 3 days
Description: as §2

UT-SCC-8 = assay: as above; details: treatment time: 3 days
Description: as §2

UT-SCC-14 = assay: as above; details: treatment time: 3 days
Description: as §2

UT-SCC-106A = assay: as above; details: treatment time: 3 days
Description: as §2

UT-SCC-73 = assay: as above; details: treatment time: 3 days
Description: as §2

[9] = culture condition: embedded in Matrigel
[10] = culture condition: embedded in Myogel + collagen I
[11] = culture condition: on top of Matrigel
[12] = culture condition: on top of Myogel
[13] = culture condition: plastic 2D (no matrix)

Compound: Cn1cnc2c(F)c(Nc3ccc(Br)cc3Cl)c(C(=O)NOCCO)cc21 [Selumetinib]
- relative IC50 (UT-SCC-40 [1]; [9]): 50.9 nM
- relative IC50 (UT-SCC-40 [1]; [10]): 41.5 nM
- relative IC50 (UT-SCC-40 [1]; [11]): 61 nM
- relative IC50 (UT-SCC-81 [2]; [9]): 53.5 nM
- relative IC50 (UT-SCC-81 [2]; [11]): 95.3 nM
- relative IC50 (UT-SCC-28 [3]): 79.9 nM
- relative IC50 (UT-SCC-24B [4]; [9]): 169 nM
- relative IC50 (UT-SCC-24B [4]; [10]): 165 nM
- relative IC50 (UT-SCC-24B [4]; [11]): 173 nM
- relative IC50 (UT-SCC-24B [4]; [12]): 177 nM
- relative IC50 (UT-SCC-24B [4]; [13]): 117 nM
- drug sensitivity score (UT-SCC-24A; [9]): 20.7 ± 4.2 DSS
- drug sensitivity score (UT-SCC-24A; [10]): 16.4 ± 1.8 DSS
- drug sensitivity score (UT-SCC-24A; [11]): 19.4 ± 3.9 DSS
- drug sensitivity score (UT-SCC-24A; [12]): 8.63 ± 1.6 DSS
- drug sensitivity score (UT-SCC-24A; [13]): 17.9 ± 3.7 DSS
- maximal % inhibition of viability (UT-SCC-42B; [9]): 67.7 ± 7.4%
- maximal % inhibition of viability (UT-SCC-42B; [11]): 46.9 ± 14%
- maximal % inhibition of viability (UT-SCC-42B; [12]): 17.3 ± 1.7%
- maximal % inhibition of viability (UT-SCC-42B; [13]): 25.6 ± 8.1%
- maximal % inhibition of viability (UT-SCC-40 [5]; [9]): 79.8 ± 1.3%
- maximal % inhibition of viability (UT-SCC-40 [5]; [10]): 62.5 ± 8%
- maximal % inhibition of viability (UT-SCC-40 [5]; [11]): 75.8 ± 3.5%
- maximal % inhibition of viability (UT-SCC-40 [5]; [12]): 52.1 ± 3.1%
- maximal % inhibition of viability (UT-SCC-40 [5]; [13]): 56.2 ± 5.7%
- maximal % inhibition of viability (UT-SCC-42A; [9]): 54.2 ± 7.8%
- maximal % inhibition of viability (UT-SCC-42A; [10]): 24.9 ± 13%
- maximal % inhibition of viability (UT-SCC-42A; [11]): 55.1 ± 8.1%
- maximal % inhibition of viability (UT-SCC-42A; [12]): 40.7 ± 4.6%
- maximal % inhibition of viability (UT-SCC-42A; [13]): 50.4 ± 6.9%
- maximal % inhibition of viability (UT-SCC-81 [6]; [9]): 87.8 ± 2%
- maximal % inhibition of viability (UT-SCC-81 [6]; [10]): 39.9 ± 7.8%
- maximal % inhibition of viability (UT-SCC-81 [6]; [11]): 82.63 ± 0.81%
- maximal % inhibition of viability (UT-SCC-81 [6]; [12]): 54.2 ± 2.4%
- maximal % inhibition of viability (UT-SCC-81 [6]; [13]): 68.7 ± 4.2%
- maximal % inhibition of viability (UT-SCC-28 [7]; [9]): 38.9 ± 18%
- maximal % inhibition of viability (UT-SCC-28 [7]; [10]): 39.8 ± 4.3%
- maximal % inhibition of viability (UT-SCC-28 [7]; [11]): 35.8 ± 9.2%
- maximal % inhibition of viability (UT-SCC-28 [7]; [13]): 29.4 ± 9.5%
- maximal % inhibition of viability (UT-SCC-44; [9]): 66.5 ± 25%
- maximal % inhibition of viability (UT-SCC-44; [10]): 42.2 ± 0.7%
- maximal % inhibition of viability (UT-SCC-44; [11]): 51.6 ± 3.1%
- maximal % inhibition of viability (UT-SCC-44; [12]): 41.2 ± 5.3%
- maximal % inhibition of viability (UT-SCC-44; [13]): 39.8 ± 1.5%
- maximal % inhibition of viability (UT-SCC-24B [8]; [9]): 87.67 ± 0.5%
- maximal % inhibition of viability (UT-SCC-24B [8]; [10]): 84 ± 4.5%
- maximal % inhibition of viability (UT-SCC-24B [8]; [11]): 86.67 ± 0.21%
- maximal % inhibition of viability (UT-SCC-24B [8]; [12]): 82.5 ± 3.8%
- maximal % inhibition of viability (UT-SCC-24B [8]; [13]): 89.73 ± 0.6%
- maximal % inhibition of viability (UT-SCC-8; [9]): 49.4 ± 8.9%
- maximal % inhibition of viability (UT-SCC-8; [10]): 33.9 ± 6.9%
- maximal % inhibition of viability (UT-SCC-8; [11]): 47.1 ± 5.1%
- maximal % inhibition of viability (UT-SCC-8; [12]): 50.4 ± 5.8%
- maximal % inhibition of viability (UT-SCC-8; [13]): 53.4 ± 9.7%
- maximal % inhibition of viability (UT-SCC-14; [9]): 31 ± 16%
- maximal % inhibition of viability (UT-SCC-14; [10]): 26.1 ± 7.3%
- maximal % inhibition of viability (UT-SCC-14; [11]): 38.6 ± 9%
- maximal % inhibition of viability (UT-SCC-14; [12]): 32.2 ± 8.8%
- maximal % inhibition of viability (UT-SCC-14; [13]): 35.5 ± 14%
- maximal % inhibition of viability (UT-SCC-106A; [9]): 53.2 ± 6.3%
- maximal % inhibition of viability (UT-SCC-106A; [10]): 18.7 ± 4.1%
- maximal % inhibition of viability (UT-SCC-106A; [11]): 58.9 ± 5.3%
- maximal % inhibition of viability (UT-SCC-106A; [12]): 15.5 ± 4.6%
- maximal % inhibition of viability (UT-SCC-106A; [13]): 58.1 ± 4.1%
- maximal % inhibition of viability (UT-SCC-73; [9]): 81.9 ± 1.5%
- maximal % inhibition of viability (UT-SCC-73; [10]): 54.4 ± 8.1%
- maximal % inhibition of viability (UT-SCC-73; [11]): 80 ± 1.5%
- maximal % inhibition of viability (UT-SCC-73; [12]): 65.4 ± 1.1%
- maximal % inhibition of viability (UT-SCC-73; [13]): 75.3 ± 1.2%
